From patent US20030186943A1, “Substituted gamma-phenyl-delta-lactams and uses related thereto” (Inflazyme Pharmaceuticals Ltd., priority 1998, published 2003) come the findings set out here.

The test system of test [1] is cAMP response element luciferase activity in human U937 monocytic cells. Put plainly: Potentiation of forskolin-induced CRE-luciferase activity in U937 cells. The class given is cell-based. The conditions noted are these: U-937, U937 cells co-incubated with 10 μM forskolin, 4 hours, X marks this range. In a few lines:
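U937 cells electroporated with PCRE-luc reporter, recovered 16-18 h, then exposed to compound or vehicle with or without 10 μM forskolin for 4 h at 37 °C. Cell lysates read for luciferase luminescence.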

For test [2], the system named is IL-10 production in concanavalin A stimulated primary human CD4+ T-cells. Put plainly: IL-10 production (Th2 profile) in concanavalin A stimulated primary human CD4+ T-cells. The class given is cell-based. The conditions noted are these: T-cell, 10 μg/mL Concanavalin A, 48 hours, X marks this range. From the text: The assay on the primary human T-cells involves their activation by concanavalin A (conA); (Sigma, Catalogue No. C 5275), followed by ELISA detection for cytokines for either profile. In the case of Th1-profiles, IL-2 and INF-γ are used as benchmarks while IL-10 is the indicator for a Th2-profile. Biologically, these indicators are useful in that IL-2 is the major T-cell mitogen while IL-10 represents a powerful yet selective immunosuppressive agent.
Approximately 60 cc of whole human blood was collected into ACD anti-coagulant vacutainer tubes. 15 mL Ficoll Paque 1077 was aliquoted into 6 sterile 50 mL conical tubes. 10 mL of blood was slowly layered on top of the Ficoll Paque by holding the tube upright and resting the pipette tip at the inside edge of the tube and allowing the blood to slowly run down the side of the tube. Tubes were spun at 1700 rpm for 30 minutes at room temperature. The plasma layer above the leukocyte band was aspirated off and a pasteur pipette was used to lift off the leukocyte band and transfer it to a sterile 50 mL conical tube. Cells from each leukocyte gradiant tube were transferred to a separate 50 mL conical tube. Sterile PBS pH 7.4 was added to each 50 mL conical tube containing cells from leukocyte band to a volume of 50 mL. Tubes were spun at 1100 rpm for 10 minutes. Supernatant was aspirated off and the cells were resuspended in 50 mL PBS pH 7.4. Tubes were re-centrifuged at 1100 rpm for 10 minutes. Supernatant was aspirated off and the cells were resuspended in appropriate medium at a density of 5×10^7 cells/mL or 2×10^6 cells/mL.
CD 4+T-cell Preparation: Cells from Leukocyte preparation were resuspended in sterile PBS pH 7.4 supplemented with 2-6% Fetal Bovine Serum (FBS) at a density of 5×10^7 cells/mL. Cells were then ready for isolation.
100 μL of antibody cocktail (Stem Cell Technologies, Catalogue No. 14062) was added for each mL of cells and mixed well. Cells+Ab cocktail was incubated on ice for 30 minutes. After 30 minute incubation, 60 μL of magnetic colloid was added for each mL of cells, and mixed well. Cells+Ab cocktail+magnetic colloid were incubated on ice for 30 minutes. After a final 30 minute incubation cells were ready for magnetic cell separation.
Sample was loaded into the top of a column. The stopcock was turned to allow the flow of media down through the column, and the media was collected into a collection tube. PBS supplemented with 2-6% FBS was added to the column until three column volumes had been collected (not including the volume of the start sample). Cells were washed, counted, and resuspended in RPMI 1640 with 10% FBS+2 mM L-glutamine at a density of 1×10^6 cells/mL.
CD4+ T-cells were isolated as described above. Cells were suspended in RPMI 1640 media (Stem Cell Technologies Inc.; Catalogue No. 36750) with 10% FBS+2 mM L-glutamine at a density of 1×10^6 cells/mL. Cells were maintained on ice as test compounds were prepared. Test compounds were prepared in a sterile 96-well assay plate at 50×the final desired test concentration, all wells contained an equal amount of dimethylsulfoxide vehicle. 500 μL of CD4^+ T-cells were added to each well of 24-well assay plate. 10 μL of each test compound working solution was added to the appropriate wells; two wells were left as stimulated and non-stimulated controls. 10 μL of concanavalin A (50×the final concentration) at 10 μg/mL was added to each well with the exception of the non-stimulated control wells. Cells were incubated at 37° C. for 48 hours. Conditioned media is then assessed by ELISA for the quantity of IL-2, […], TNFα and IL-10 present.
Tables 5A, 5B and 5C represent a synopsis of data across individuals with respects to the potency of compounds of the invention in their ability to inhibit cytokines that are likely to promote or depress a Th1 or Th2 response. […]

The subject of test [3] is High Affinity Rolipram Binding Site of PDE4 in Mouse Brain. The test is described as follows: Displacement of [3H]-rolipram from its high affinity binding site (HARBS). The conditions noted are these: for PDE4:HARBS: ratio of IC50 for PDE4 catalytic activity to concentration displacing 50% of rolipram from HARBS.
Setting [4] is: read-out: IL-10 IC50 RANGE (μM) 2.0-20.
The mark [5] stands for this setting: read-out: EC50 range (μM) 0.1-1.
The mark [6] stands for this setting: read-out: IL-10 IC50 RANGE (μM) 0.2-2.0.
The mark [7] stands for this setting: read-out: IL-10 IC50 RANGE (μM) 0.02-0.2.

Like-named read-outs stand apart in the source and are kept apart here. Where only a bound is given, the exact number is not on record here.

Take `COc1cc(C[C@@H]2CC(c3ccc(OC)c(OC)c3)COC2=O)ccc1O` (mixture of isomers) [Compound 12]: the EC50 in test [1] (read-out: EC50 range (μM) 1-25) was 1 to 25 µM.
For the molecule `COc1cc(C[C@@H]2C[C@@H](c3ccc(OC)c(OC)c3)COC2=O)ccc1O` [Compound 30], the IC50 in test [2] (setting [4]) lay within 2 to 20 µM. Moreover, the “PDE4:HARBS” value in test [3] was less than 1. The EC50 in test [1] (read-out: EC50 range (μM) 1-25) lay in the range of 1 to 25 µM.
In the case of `COc1ccc([C@@H]2CCC(=O)OC2)cc1OC1CCCC1` [Compound 41], the “PDE4:HARBS” value in test [3] is reported as greater than 1. The EC50 in test [1] (setting [5]) was in the range of 0.1 to 1 µM.
Consider `COc1cc(CC2C[C@@H](c3ccc(OC)c(OC4CCCC4)c3)COC2=O)ccc1O` (some centres unmarked) [Compound 43], for which, in test [2] (setting [4]), the 50% inhibitory concentration (IC50) lay within 2 to 20 µM. Further, in test [3], the “ratio of IC50's for PDE4catalytic to PDE4HARBS” value came out at 1.04 and the “PDE4:HARBS” value is listed as greater than 1. Further, the EC50 in test [1] (setting [5]) lay in the range of 0.1 to 1 µM.
Regarding `COc1ccc([C@H]2CNC(=O)C(Cc3ccc(OCc4ccccc4)c(OC)c3)C2)cc1OC` (some centres unmarked) [Compound 54], in test [2] (setting [6]), the IC50 was 0.2 to 2 µM. In test [3], the “PDE4:HARBS” value was greater than 1. For the same molecule, in test [1] (read-out: EC50 range (μM) 1-25), the EC50 was 1 to 25 µM.
The matching figures for `COc1cc(CC2C[C@@H](c3ccc(OC)c(OC)c3)CNC2=O)ccc1O` (some centres unmarked) [Compound 55]: 0.2 to 2 µM, greater than 1 and 1 to 25 µM.
Turning to `COc1cc(CC2C[C@@H](c3ccc(OC)c(OC4CCCC4)c3)CNC2=O)ccc1O` (some centres unmarked) [Compound 62], the IC50 in test [2] (setting [7]) fell in the range of 0.02 to 0.2 µM. For the same molecule, the “PDE4:HARBS” value in test [3] is greater than 1. In addition, in test [1] (read-out: EC50 range (μM) 1-25), the EC50 is 1 to 25 µM.
For the molecule `COc1ccc(C2CNC(=O)C2)cc1OC1CCCC1` (centres unmarked) [Rolipram, reference compound], the IC50 in test [2] (setting [7]) lay within 0.02 to 0.2 µM.
